Test results: patent US20250129070A1, “BIFUNCTIONAL ANDROGEN RECEPTOR COMPOUNDS” (priority 2023, published 2025)

How the values were obtained:
AR / CBP ternary complex = test: Ternary complex formation assay (sandwich ELISA, AR capture / CBP detection) in VCaP cell lysates; type: cell-based; settings: 1.5 hours treatment, sandwich ELISA (AR capture, CBP or p300 detection)
Outline: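 VCaP cells (50K/well, 5% charcoal-stripped FBS, ≥3 days) treated with bifunctional compound for 1.5 h, then lysed 30 min at 4 °C. AR captured on anti-AR (AR 441) plates; bound CBP or p300 detected by rabbit mAb plus HRP secondary. QuantaRed chemifluorescence read at ex 570/em 585, immediately and at 5 and 15 min.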

VCaP cells = test: VCaP growth inhibition assay; type: cell-based; settings: 30 pM R1881, 9 days, CTG
Outline: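 VCaP cells in phenol red-free DMEM/5% CSS, pre-incubated 72 h, then stimulated with R1881 (final 30 pM) and treated with 1:5 serial dilutions (final 100 nM to 10 fM) for 9 days at 37 °C. Viability by CellTiter-Glo luminescence; IC50 from 4-parameter logistic fit of RLU vs concentration.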

EC50 (AR / CBP ternary complex) | IC50 (VCaP cells) | Compound
> 100 nM | 0.1 to 1 nM | CNC(=O)N1CCc2c(c(N3CCCc4cc(-c5cnn(C)c5)c(C(F)F)cc43)nn2C2CCN(c3ncc(C(=O)NC4C(C)(C)C(Oc5ccc(C#N)c(Cl)c5)C4(C)C)cn3)CC2)C1 (stereo not drawn) [Compound 93, 1-[1-[5-[[3-(3-chloro-4-cyano-phenoxy)-2,2,4,4-tetramethyl-cyclobutyl]carbamoyl]pyrimidin-2-yl]-4-piperidyl]-3-[7-(difluoromethyl)-6-(1-methylpyrazol-4-yl)-3,4-dihydro-2H-quinolin-1-yl]-N-methyl-6,7-dihydro-4H-pyrazolo[4,3-c]pyridine-5-carboxamide]
< 1 nM | 0.1 to 1 nM | CC(=O)N1CCc2c(c(N3CCCc4cc(-c5cnn(C)c5)c(C(F)F)cc43)nn2C2CCC(CN3CCN(c4ncc(C(=O)NC5C(C)(C)C(Oc6ccc(C#N)c(Cl)c6)C5(C)C)cn4)CC3)CC2)C1 (stereo not drawn) [Compound 320, 2-[4-[[4-[5-acetyl-3-[7-(difluoromethyl)-6-(1-methylpyrazol-4-yl)-3,4-dihydro-2H-quinolin-1-yl]-6,7-dihydro-4H-pyrazolo[4,3-c]pyridin-1-yl]cyclohexyl]methyl]piperazin-1-yl]-N-[3-(3-chloro-4-cyano-phenoxy)-2,2,4,4-tetramethyl-cyclobutyl]pyrimidine-5-carboxamide]
< 1 nM | 0.1 to 1 nM | COc1cc(OC2C(C)(C)C(NC(=O)c3ccc(N4CCN(CCn5cc(-c6cc7cccc(-c8nn(C9CCOCC9)c9c8CN(C(C)=O)CC9)c7cn6)cn5)CC4)cc3)C2(C)C)ccc1C#N (stereo not drawn) [Compound 249, 4-[4-[2-[4-[8-(5-acetyl-1-tetrahydropyran-4-yl-6,7-dihydro-4H-pyrazolo[4,3-c]pyridin-3-yl)-3-isoquinolyl]pyrazol-1-yl]ethyl]piperazin-1-yl]-N-[3-(4-cyano-3-methoxy-phenoxy)-2,2,4,4-tetramethyl-cyclobutyl]benzamide]
< 1 nM | 0.1 to 1 nM | CC(=O)N1CCc2c(c(N3CCCc4cc(-c5cnn(C)c5)c(C)cc43)nn2C2CCN(C3CCC4(CC3)CN(c3ncc(C(=O)NC5C(C)(C)C(Oc6ccc(C#N)c(C)c6C)C5(C)C)cn3)C4)CC2)C1 (stereo not drawn) [Compound 472, 2-[7-[4-[5-acetyl-3-[7-methyl-6-(1-methylpyrazol-4-yl)-3,4-dihydro-2H-quinolin-1-yl]-6,7-dihydro-4H-pyrazolo[4,3-c]pyridin-1-yl]-1-piperidyl]-2-azaspiro[3.5]nonan-2-yl]-N-[3-(4-cyano-2,3-dimethyl-phenoxy)-2,2,4,4-tetramethyl-cyclobutyl]pyrimidine-5-carboxamide]
< 1 nM | ≤ 0.1 nM | CC(=O)N1CCc2c(c(-c3cccc4cc(-c5ccc(C(=O)NC6CCN(c7ncc(C(=O)NC8C(C)(C)C(Oc9ccc(C#N)c(Cl)c9)C8(C)C)cn7)CC6)nc5)ncc34)nn2C2CCOCC2)C1 (stereo not drawn) [Compound 180, 2-[4-[[5-[8-(5-acetyl-1-tetrahydropyran-4-yl-6,7-dihydro-4H-pyrazolo[4,3-c]pyridin-3-yl)-3-isoquinolyl]pyridine-2-carbonyl]amino]-1-piperidyl]-N-[3-(3-chloro-4-cyano-phenoxy)-2,2,4,4-tetramethylcyclobutyl]pyrimidine-5-carboxamide]
< 1 nM | ≤ 0.1 nM | CC(=O)N1CCc2c(c(-c3cccc4cc(-c5cnn(CCC6CC7(C6)CN(c6ncc(C(=O)NC8C(C)(C)C(Oc9ccc(C#N)c(Cl)c9)C8(C)C)cn6)C7)c5)ncc34)nn2C)C1 (stereo not drawn) [Compound 226, 2-[6-[2-[4-[8-(5-acetyl-1-methyl-6,7-dihydro-4H-pyrazolo[4,3-c]pyridin-3-yl)-3-isoquinolyl]pyrazol-1-yl]ethyl]-2-azaspiro[3.3]heptan-2-yl]-N-[3-(3-chloro-4-cyano-phenoxy)-2,2,4,4-tetramethyl-cyclobutyl]pyrimidine-5-carboxamide]
< 1 nM | ≤ 0.1 nM | CC(=O)N1CCc2c(c(N3CCCc4cc(-c5cnn(C)c5)c(C(F)F)cc43)nn2C2CC3(CCN(C4CCN(c5ncc(C(=O)NC6C(C)(C)C(Oc7ccc(C#N)c(Cl)c7)C6(C)C)cn5)CC4)CC3)C2)C1 (stereo not drawn) [Compound 373, 2-[4-[2-[5-acetyl-3-[7-(difluoromethyl)-6-(1-methylpyrazol-4-yl)-3,4-dihydro-2H-quinolin-1-yl]-6,7-dihydro-4H-pyrazolo[4,3-c]pyridin-1-yl]-7-azaspiro[3.5]nonan-7-yl]-1-piperidyl]-N-[3-(3-chloro-4-cyano-phenoxy)-2,2,4,4-tetramethyl-cyclobutyl]pyrimidine-5-carboxamide]

Continued, molecule first:

Compound | EC50 (AR / CBP ternary complex) | IC50 (VCaP cells)
CC(=O)N1CCc2c(c(N3CCCc4cc(-c5cnn(C)c5)c(C(F)F)cc43)nn2C2CCN(CCOC3CCN(c4ncc(C(=O)NC5C(C)(C)C(Oc6ccc(C#N)c(Cl)c6)C5(C)C)cn4)CC3)CC2)C1 (stereo not drawn) [Compound 170, 2-[4-[2-[4-[5-acetyl-3-[7-(difluoromethyl)-6-(1-methylpyrazol-4-yl)-3,4-dihydro-2H-quinolin-1-yl]-6,7-dihydro-4H-pyrazolo[4,3-c]pyridin-1-yl]-1-piperidyl]ethoxy]-1-piperidyl]-N-[3-(3-chloro-4-cyano-phenoxy)-2,2,4,4-tetramethyl-cyclobutyl]pyrimidine-5-carboxamide] | < 1 nM | 0.1 to 1 nM
Cn1c(=O)n(C)c2cc(N3CCCc4cc(-c5ccc(CCC6CCN(c7ncc(C(=O)NC8C(C)(C)C(Oc9ccc(C#N)c(Cl)c9)C8(C)C)cn7)CC6)nc5)ncc43)ccc21 (stereo not drawn) [Compound 234, N-[3-(3-chloro-4-cyano-phenoxy)-2,2,4,4-tetramethyl-cyclobutyl]-2-[4-[2-[5-[1-(1,3-dimethyl-2-oxo-benzimidazol-5-yl)-3,4-dihydro-2H-1,7-naphthyridin-6-yl]-2-pyridyl]ethyl]-1-piperidyl]pyrimidine-5-carboxamide] | 1 to 10 nM | > 100 nM
CC(=O)N1CCc2c(c(N3CCCc4cc(-c5cnn(C)c5)c(C)cc43)nn2C2CCN(CC3CCN(c4ncc(C(=O)NC5C(C)(C)C(Oc6ccc(C#N)c(C)c6C)C5(C)C)cn4)CC3(C)C)CC2)C1 (stereo not drawn) [Compound 465, 2-[4-[[4-[5-acetyl-3-[7-methyl-6-(1-methylpyrazol-4-yl)-3,4-dihydro-2H-quinolin-1-yl]-6,7-dihydro-4H-pyrazolo[4,3-c]pyridin-1-yl]-1-piperidyl]methyl]-3,3-dimethyl-1-piperidyl]-N-[3-(4-cyano-2,3-dimethyl-phenoxy)-2,2,4,4-tetramethyl-cyclobutyl]pyrimidine-5-carboxamide] | < 1 nM | 0.1 to 1 nM
Cn1cc(-c2cc3cccc(-c4cc(C5CCN(CC6CCN(c7ncc(C(=O)NC8C(C)(C)C(Oc9ccc(C#N)c(Cl)c9)C8(C)C)cn7)CC6)CC5)c5c(c4)n(C)c(=O)n5C)c3cn2)cn1 (stereo not drawn) [Compound 213, N-[3-(3-chloro-4-cyano-phenoxy)-2,2,4,4-tetramethyl-cyclobutyl]-2-[4-[[4-[1,3-dimethyl-6-[3-(1-methylpyrazol-4-yl)-8-isoquinolyl]-2-oxo-benzimidazol-4-yl]-1-piperidyl]methyl]-1-piperidyl]pyrimidine-5-carboxamide] | > 100 nM | 0.1 to 1 nM
CC(=O)N1CCc2c(c(N3CCCc4cc(-c5cnn(C)c5)c(C(F)F)cc43)nn2C2CCN([C@@H]3CCN(c4ncc(C(=O)NC5C(C)(C)C(Oc6ccc(C#N)c(Cl)c6)C5(C)C)cn4)C3)CC2)C1 (stereo partly drawn) [Compound 335, 2-[(3R)-3-[4-[5-acetyl-3-[7-(difluoromethyl)-6-(1-methylpyrazol-4-yl)-3,4-dihydro-2H-quinolin-1-yl]-6,7-dihydro-4H-pyrazolo[4,3-c]pyridin-1-yl]-1-piperidyl]pyrrolidin-1-yl]-N-[3-(3-chloro-4-cyano-phenoxy)-2,2,4,4-tetramethyl-cyclobutyl]pyrimidine-5-carboxamide] | < 1 nM | 0.1 to 1 nM
CC(=O)N1CCc2c(c(N3CCCc4cc(-c5cnn(C)c5)c(Cl)cc43)nn2C2CCN(CC3CCN(c4ncc(C(=O)NC5C(C)(C)C(Oc6ccc(C#N)c(Cl)c6)C5(C)C)cn4)CC3)CC2)C1 (stereo not drawn) [Compound 25, 2-[4-[[4-[5-acetyl-3-[7-chloro-6-(1-methylpyrazol-4-yl)-3,4-dihydro-2H-quinolin-1-yl]-6,7-dihydro-4H-pyrazolo[4,3-c]pyridin-1-yl]-1-piperidyl]methyl]-1-piperidyl]-N-[3-(3-chloro-4-cyano-phenoxy)-2,2,4,4-tetramethyl-cyclobutyl]pyrimidine-5-carboxamide] | 1 to 10 nM | 0.1 to 1 nM
Cn1cc(-c2cc3c(cc2C(F)F)N(c2cc(C4CCN(CC5CCN(c6ncc(C(=O)NC7C(C)(C)C(Oc8ccc(C#N)c(Cl)c8)C7(C)C)cn6)CC5)CC4)c4c(c2)n(C)c(=O)n4C)CCC3)cn1 (stereo not drawn) [Compound 214, N-[3-(3-chloro-4-cyano-phenoxy)-2,2,4,4-tetramethyl-cyclobutyl]-2-[4-[[4-[6-[7-(difluoromethyl)-6-(1-methylpyrazol-4-yl)-3,4-dihydro-2H-quinolin-1-yl]-1,3-dimethyl-2-oxo-benzimidazol-4-yl]-1-piperidyl]methyl]-1-piperidyl]pyrimidine-5-carboxamide] | < 1 nM | 1 to 100 nM
Cn1c(=O)sc2ccc(-c3cccc4cc(-c5ccc(CCC6CCN(c7ncc(C(=O)NC8C(C)(C)C(Oc9ccc(C#N)c(Cl)c9)C8(C)C)cn7)CC6)nc5)ncc34)cc21 (stereo not drawn) [Compound 235, N-[3-(3-chloro-4-cyano-phenoxy)-2,2,4,4-tetramethyl-cyclobutyl]-2-[4-[2-[5-[8-(3-methyl-2-oxo-1,3-benzothiazol-5-yl)-3-isoquinolyl]-2-pyridyl]ethyl]-1-piperidyl]pyrimidine-5-carboxamide] | < 1 nM | > 100 nM
